Test results taken from patent publication US20260364124A1, “ANTI-C. DIFFICILE SMALL MOLECULE METABOLITES FROM DIET AND GUT MICROBIOME” (The Children's Medical Center Corporation, priority 2023, published 2026).
Entries after “also recorded” stand apart in the source; their conditions may differ.

Tested on: C. difficile M7404
Experiment: In vitro polydatin bioactivation and C. difficile antagonism by conditioned (spent) media of B. uniformis WT
Format: cell-based, Clostridioides difficile
Settings: polydatin 500 μM, 1/2-diluted, C. difficile M7404 growth 12 h (FIG. 5A)
Experimental: FIGS. 5A and 5B show microbiome-mediated polyphenol aglycone liberation. […] Step 2: Spent media was filter-sterilized. Step 3: C. difficile was grown in spent media from either vehicle or polydatin (top). […]
The experimental media consisted of a modified YCFA media (mYCFA; casitone (2.5 g/L), yeast extract (0.625 g/L), cysteine (0.5 g/L), magnesium sulfate heptahydrate (f.c. 365 μM), calcium chloride dihydrate (f.c. 610 μM), sodium bicarbonate (4 g/L), dipotassium phosphate (0.45 g/L), monopotassium phosphate (0.45 g/L), sodium chloride (0.9 g/L), sodium acetate (2.71 g/L), Hemin (50 mg/L), Vitamin K1 (0.25 mg/L), ferrous sulfate (4 μg/mL), and ATCC vitamin mix (1% v/v)) supplemented with glucose (15 mM, Sigma) plus ½-diluted B. uniformis WT or AgshD conditioned media from growth with or without polydatin. C. difficile growth was monitored by measuring the optical density at 600 nm (OD600) of each culture in a 384 well plate with an Epoch2 spectrophotometer (BioTek Instruments) for 12 hours.

## OC[C@H]1O[C@@H](Oc2cc(O)cc(/C=C/c3ccc(O)cc3)c2)[C@H](O)[C@@H](O)[C@@H]1O [polydatin]
  anti-C. difficile activity of conditioned media from B. uniformis WT grown with polydatin: inhibited the growth of Clostridioides difficile in vitro; also recorded: generated potent anti-C.difficile activity
